Each structure is given as a SMILES string. Counter-ions that a name gives are not always drawn.

Experimental findings from patent US4330550A, “Oxoimidazolinealkanoic acids and their salts and esters, their preparation and pharmaceutical compositions containing them” (A. Nattermann & Cie. GmbH, priority 1979, dated 1982) are described below.

This assay concerns collagen-induced aggregation of platelets (human plasma with a high platelet content). The experiment in a line: Inhibition of collagen-induced aggregation of thrombocytes in vitro (method of Born). In kind it is cell-based. The following applies: 0.3 μmol/ml. The source says: The aggregation of platelets in the presence of the compounds of the invention has been tested by the collagen-induced aggregation method of Born., Nature 4832/927, 29 (1962). The effect of the compounds in inhibiting thrombocyte aggregation was investigated in vitro on human plasma with a high platelet content.
The percentage inhibition of collagen-induced aggregation in vitro by compounds from the Examples indicated in Table 3, or combinations thereof with heparin, at a final concentration of 0.3 or 0.6 μmol of compound per ml of human plasma with a high platelet content, can be seen from the following Table.
As for `O=C(O)CCCCCCCn1c(-c2ccccc2)c[nH]c1=O` [Example 1c, sodium salt of 8-(2-oxo-5-phenyl-4-imidazolin-1-yl)-caprylic acid], the “% inhibition compared with the control (collagen-induced aggregation)” value (“% inhibition compared with the control” for short) stood at 80%.

On to `O=C(O)CCCCCCn1c(-c2ccccc2)c[nH]c1=O` [Example 2c], for which the “% inhibition compared with the control” value is recorded as 46%.

Turning to `O=C(O)CCCCCCn1c(-c2ccc(Cl)cc2)c[nH]c1=O` [Example 5c], the “% inhibition compared with the control” value was determined as 63%.
